Measured values as given in patent US20240158448A1, “MULTIVALENT NANO-'SELF' PEPTIDES AND USES THEREOF” (THE TRUSTEES OF THE UNIVERSITY OF PENNSYLVANIA, priority 2021, published 2024).
“Also recorded” adds a separate entry of the source.

Columns and labels:
[1] = test system: human macrophages (opsonized K562 cancer cells); assay: Phagocytosis of opsonized K562 erythroleukemia cells by human macrophages; assay type: cell-based
Experimental: (§1) In vitro phagocytosis assay. Fresh human RBCs were washed twice with 50 mM EDTA (Thermo Fischer) in PBS (Gibco) then twice with 5% FBS in PBS. RBCs were opsonized with 20 μg/mL rabbit anti-human RBC antibody (Rockland) in 5% FBS for 1 hour at RT with shaking. For CD47 blocked RBCs, 5 μg/mL of mouse anti-human CD47 (B6H12; BD Biosciences) were added. Thereafter, RBCs were washed with PBS three times and stained with PKH26 dye (1:800 dilution in PBS; Sigma) for 1 hour at RT with shaking in the dark. RBCs were washed and resuspended in PBS.
(§2) THP-1 monocytes were PMA differentiated in RPMI for 48 hours. Macrophages were then washed with RPMI media three times. For SIRPα blocked THP-1 macrophages, 20 nM, 1 μM or 50 μM of the nano—Self peptides were incubated with the THP-1 macrophages for 1 hour at 37 ° C., 5% CO2 and 95% humidity. Those THP-Is were then washed with RPMI three times.
(§3) CO2 and 95% humidity. Macrophages were then washed with RPMI three times. Adherent and uninternalized RBCs were lysed with water for 30 seconds followed by immediate replacement with RPMI media. In order to distinguish remaining adherent RBCs from internalized RBCs, opsonized RBCs were stained with AlexaFluor 647 donkey anti-rabbit (binds to rabbit polyclonal opsonin on RBC; Invitrogen) IgG (1:1000) while unopsonized, CD47 blocked RBCs were stained with AlexaFluor 647 donkey anti-mouse (binds to mouse monoclonal anti-CD47 on RBCs; Invitrogen) IgG (1:1000) for 30 minutes. After washing, macrophages were fixed with 4% formaldehyde for 15 minutes at RT, washed with PBS, stained with 1 μg/mL Hoechst 33342, and then washed with PBS again. Fluorescence imaging was performed as described elsewhere herein and quantification was done using ImageJ. At least 200 cells were analyzed and experiments were repeated at least three times.
The anti-RBC successfully opsonized and triggered phagocytosis of K562 cells by macrophages (FIGS. 2A, 2F and 2E). […] Interaction of the nS peptides with K562 cells is likely minimal due to the relative lack of SIRPα expression. […] For both opsonized RBCs and opsonized K562s (FIGS. 2D, 2F), the hyperphagocytosis that is achieved with soluble F- and V-nS peptides matches the recently measured increases for disruption of both (i) the trans interactions between CD47 on a target and macrophage SIRPα and also, importantly, (ii) the cis interactions between CD47 and SIRPα on the same macrophage (FIG. 2G-left). Expression profiling of macrophages confirms these cells generally express CD47 at roughly similar levels to other cell types (FIG. 15). […] A preliminary conclusion is that nS-FF and the other substituted peptides, which were designed to bind SIRPα, inhibit both the cis and trans interactions between SIRPα and CD47 ([…]).

SIRPα = biological target: T1, SIRPα (Homo sapiens, UniProt P78324); assay: CD47-Fc Inhibition Assay on THP-1 macrophages; assay type: binding; settings: 1 μM or 50 μM peptide, 2 μg/mL CD47-Fc, anti-Fc fluorescence
T1 construct: THP-1 monocytes were PMA differentiated in RPMI for 48 h; endogenous in cells; host or cells: PMA-differentiated THP-1 macrophages
Experimental: CD47-Fc Inhibition Assay. THP-1 monocytes were PMA differentiated in RPMI for 48 h. The macrophages were washed with RPMI media and then incubated with 1 μM or 50 μM of nano- Self peptides for 1 h at 37° C., 5% CO2, and 95% humidity. After washing, the macrophages were incubated with Human Trustain FcX Fc receptor blocking solution (Biolegend) for 10 min at RT and then incubated with 2 μg/mL CD47-Fc fusion protein (ACRO Biosystems) for 1 h at 37° C., 5% CO2, and 95% humidity. As a negative control, B6H12 was pre-mixed with CD47-Fc at 4° C. on a rotator for 1 h. The macrophages were then washed and incubated with 0.5 μg/mL goat anti-human IgG Fc DyLight 488 (Thermo Fischer) for 1 h at 37° C., 5% CO2, and 95% humidity. Finally, the macrophages were washed, fixed, Hoechst 33342 stained, and imaged as described above.
To determine whether the nS peptides bind to SIRPα, nS-FF and nS-F4 were used as soluble competitive inhibitors of saturable CD47-Fc fusion protein binding to macrophages (FIG. 20). Addition of multivalent nS peptides was followed by Fc-receptor blockade to minimize Fc-driven binding of construct. Afterwards, CD47-Fc was added and then finally anti-Fc fluorescence imaging was performed (FIG. 20, left).

human THP-1 macrophages [2] = assay: In vitro phagocytosis assay: opsonized human RBCs engulfed by peptide-treated THP-1 macrophages; assay type: cell-based
Experimental: as §1, §2, §3

THP-1 macrophages = assay: Peptide inhibition assay (competition with FAM-labeled nS-F on THP-1 macrophages); assay type: binding, human; settings: pre-treatment with unlabeled peptide
Experimental: Peptide inhibition assay. THP-1 monocytes were PMA differentiated in RPMI for 48 hours. […] To measure background internalization of the FAM-labeled peptides, nS-X-FAM was used. To determine the efficacy of the bivalent peptides to inhibit SIRPα binding, nS-X was used. Excess peptides were washed off with PBS and cells were fixed with 4% formaldehyde for 15 minutes at RT, washed with PBS, stained with 1 μg/mL Hoechst 33342, and then washed with PBS again. Fluorescence imaging was performed as described elsewhere herein and quantification was done using ImageJ.

[3] = test system: mouse bone marrow derived macrophages (BMDMs); assay: Phagocytosis of anti-TYRP1 opsonized B16F10 melanoma cells by mouse bone marrow derived macrophages; assay type: cell-based; settings: 50 μM peptide
Experimental: B16F10 cells: Bone marrow cells were isolated from femurs and tibias of healthy C57BL6/J mice (The Jackson Laboratory) and cultured in 10-cm petri dishes containing IMDM (Gibco) supplemented with 10% v/v FBS, 1% v/v penicillin/streptomycin, and 1:10,000 macrophage colony stimulating factor cytokine (M-CSF; Biolegend) for 7 days at 37° C., 5% CO2 and 95% humidity. All animal experiments were performed according to protocols approved by the University of Pennsylvania's IACUC (protocol #805977 and #804455). The resulting mouse bone marrow derived macrophages (BMDMs) were washed with PBS containing Ca2^+/Mg2^+ (Gibco) then detached with 0.25% trypsin-EDTA (Gibco) and re-plated in 6-well tissue culture plates using IMDM+M-CSF for 24 hours.
Mouse melanoma B16F10 cells were washed with PBS containing Ca2-/Mg2- and then trypsinized with 0.05% trypsin-EDTA. After washing twice with PBS, the cells were labeled with 1:10,000 CFDA—SE (Thermo Fisher) in PBS for 10 minutes. B16F10 cells were opsonized with 10 μg/mL anti-TYRP1 (TA99; Bio X Cell) in PBS for 2 hours at 4° C.with occasional inverting. For CD47 blocked B16F10 cells, 5 μg/mL of […] were added. During the incubation time, the BMDMs were washed with media then stained with 1:2,000 CellTracker Deep Red (Thermo Fisher) in PBS with Ca2^+/Mg2^+ for 10 min. After washing, 50 μM of the nano—Self peptides were incubated with the BMDMs for 1 hour at 37° C., 5% CO2 and 95% humidity. Finally, BMDMs were washed twice with PBS and then twice with serum-free IMDM.
Without removing the supernatant, the opsonized melanoma cells were added to the labeled BMDMs at a ratio of 2:1 for 2 hours at 37° C., 5% CO2 and 95% humidity. During the last 15 minutes of the assay, the cells were Hoechst stained. The wells were washed with serum free IMDM then fixed with 4% formaldehyde for 15 minutes at RT, and PBS washed. Fluorescence imaging was performed using an Olympus IX71 with a digital EMCCD camera (Cascade 512B) and a 40×/0.6 NA objective. Quantification was done with ImageJ (NIH). At least 200 cells were analyzed and two-tailed student's t-test was used to determine statistical significance.

human THP-1 macrophages [4] = assay: Residual adhesion of opsonized RBCs to macrophages; assay type: cell-based; settings: 50 μM peptide
Text: To measure the residual adhesion of RBCs and distinguish it from internalization by macrophages, the engulfment assay with human RBCs used a secondary antibody against the opsonizing IgG, which allowed us to clearly see RBCs in contact with macrophages that are not internalized (FIG. 29C). The cells are also firmly attached to the macrophages because the culture dishes were rinsed after fixation and secondary antibody labeling. […] All of the RBCs in these samples are equally opsonized with IgG that binds Fc-receptors (FcR's) on macrophages, and so differences in measured adhesion implicate differences in the CD47—SIRPα interaction.

[5] = test system: mouse J774A.1 macrophages; assay: In vitro phagocytosis assay: opsonized human RBCs engulfed by mouse J774A.1 macrophages; assay type: cell-based
Experimental: as §3, with “In vitro phagocytosis assay. […] For CD47 blocked RBCs, 5 μg/mL of mouse anti-human CD47 (B6H12; BD Biosciences) were added. Thereafter, RBCs were washed with PBS three times and stained with PKH26 dye (1:800 dilution in PBS; Sigma) for 1 hour at RT with shaking in the dark. RBCs were washed and resuspended in PBS. J774A.1 macrophages were plated for 24 hours in RPMI. For SIRPα blocked J774A.1 macrophages, the same peptide blocking procedure as described elsewhere herein was used with the addition of a positive control using 5 μg/mL rat anti-mouse SIRPα ([…]; BD Biosciences). […] CO2” for “CO2”

| level of inhibition of CD47-Fc binding (SIRPα) | Substance | effect on phagocytosis of opsonized RBCs (words) (human THP-1 macrophages [2]; saturating / 50 μM peptide) | effect on phagocytosis of opsonized RBCs (words) (human THP-1 macrophages [2]; 20 nM peptide) | inhibition of monovalent nS-F-FAM binding to macrophages (THP-1 macrophages) | effect on phagocytosis of opsonized WT and SIRPα KO B16 cells [3] | further results |
| --- | --- | --- | --- | --- | --- | --- |
| 0 | (LETVEGTR-PEG5)2-K (LETVEGTRKRTGEVTEL; bivalent, PEG5 linkers, lysine core; nS-XX; (8)..(9) 5x PEG linker between residues; (9)..(10) 5x PEG linker between residues) [bivalent scrambled control] | unaffected; also recorded: do not affect baseline engulfment of opsonized RBCs; also recorded: do not have effects on phagocytosis |  |  |  | effect on phagocytosis of opsonized K562 cells [1]: unaffected; also recorded: only opsonization effect observed |
|  | (VTELVREG-PEG5)2-K (VTELVREGKGERVLETV; bivalent, PEG5 linkers, lysine core; nS-VV; (8)..(9) 5x PEG linker between residues; (9)..(10) 5x PEG linker between residues) [bivalent nS-V] | activity profiles in phagocytosis assays that are similar to the monovalent nS-F | successful in activating THP-1 to engulf opRBCs | further decreased |  |  |
|  | CVTELFREGC (HELM PEPTIDE1{C.V.T.E.L.F.R.E.G.C.[am]}$PEPTIDE1,PEPTIDE1,1:R3-10:R3$$$V2.0; N-terminus assumed; SMILES CC(C)C[C@@H]1NC(=O)[C@H](CCC(=O)O)NC(=O)[C@H]([C@@H](C)O)NC(=O)[C@H](C(C)C)NC(=O)[C@@H](N)CSSC[C@@H](C(N)=O)NC(=O)CNC(=O)[C@H](CCC(=O)O)NC(=O)[C@H](CCCNC(=N)N)NC(=O)[C@H](Cc2ccccc2)NC1=O) [nS-F-Cyc, cyclic variant of nS-F] | Maximum levels of phagocytic macrophages |  |  | Maximum levels of phagocytic macrophages | increase of macrophage phagocytosis relative to nS-wt (human THP-1 macrophages [2]; saturating peptide): roughly 25% |
| as inhibitory as anti-CD47 | ((VTELFREG-PEG5)2-K)2-K [nS-F4] |  | more potent in enhancing phagocytosis | more potent in inhibiting monovalent nS-F-fluor association with macrophages than bivalent nS-FF |  | increase of phagocytosis relative to opsonized and CD47 blocked K562 cells ([1]; saturating peptide): nearly doubled; also recorded: about two-fold; macrophages engulfing opsonized K562 cells at saturation ([1]; saturation): ~40% |
|  | CVELTREGC (HELM PEPTIDE1{C.V.E.L.T.R.E.G.C.[am]}$PEPTIDE1,PEPTIDE1,1:R3-9:R3$$$V2.0; N-terminus assumed; SMILES CC(C)C[C@@H]1NC(=O)[C@H](CCC(=O)O)NC(=O)[C@H](C(C)C)NC(=O)[C@@H](N)CSSC[C@@H](C(N)=O)NC(=O)CNC(=O)[C@H](CCC(=O)O)NC(=O)[C@H](CCCNC(=N)N)NC(=O)[C@H]([C@@H](C)O)NC1=O) [nS-Cyc] | greater effect in perturbing the CD47-SIRPα interaction compared to linear nS-wt; also recorded: slightly higher levels than opsonized and anti-CD47 blocked RBCs; also recorded: Maximum levels of phagocytic macrophages |  |  | Maximum levels of phagocytic macrophages | residual adhesion of opsonized RBCs to macrophages (human THP-1 macrophages [4]): lowest amount of residual adhesion to macrophages; fold more active than the linear counterpart ([5]; mouse macrophages, opsonized RBCs): roughly 20 fold; effect on phagocytosis of opsonized RBCs (words) ([5]; saturating / 50 μM peptide): slightly higher levels than opsonized and anti-CD47 blocked RBCs |
